Results taken from publication PMC9531406 (Clinical cancer research : an official journal of the …, 2020).

Columns and labels:
[1] = system: subcutaneous and metastatic mice models; assay: Effect of epigenetic pretreatment on uptake of SST analogs in mice models; format: in vivo; settings: for effect on the uptake of ^86Y-DOTA-EB-TATE within the tumor and normal tissues in comparison with control mice: biodistribution, FTC133 and AR42J tumor-bearing mice
[2] = system: SSTR2 promoter; assay: ChIP assay, histone acetylation at the SSTR2 promoter, FTC133 cells; format: cell-based, human; settings: VAC 4mM, 72h
[3] = system: examined cell lines; assay: Growth inhibition / cell cycle after VAC treatment; format: cell-based; settings: VAC treatment (Supplemental Figure 3)
[4] = system: acetylated histone 3 and acetylated histone 4; assay: Global histone acetylation; format: cell-based; settings: FTC133, BCPAP, and AR42J cells; VAC 4mM, 72h, n=3
[5] = system: SSTR2 expression; assay: SSTR2 expression in AR42J cells after VAC; format: cell-based, rat; settings: AR42J cell line; 2 mM or 4 mM for 72 h
[6] = system: FTC133 tumors; assay: PRRT in FTC133; format: in vivo; settings: FTC133 mice model; VAC 300 µg/kg intraperitoneal daily for 10 days
[7] = system: SSTR2 promoter; assay: ChIP assay, histone acetylation at the SSTR2 promoter, AR42J cells; format: cell-based, rat; settings: VAC 4mM, 72h, n=4, relative to control
[8] = system: AR42J tumors; assay: PRRT in AR42J; format: in vivo; settings: AR42J mice model; VAC 300 µg/kg intraperitoneal daily for 10 days
[9] = system: SSTR2 promoter; assay: ChIP assay, histone acetylation at the SSTR2 promoter, BCPAP cells; format: cell-based, human; settings: VAC 4mM, 72h, n=4, relative to control, p<0.001
[10] = system: SSTR2 expression; assay: SSTR2 expression in thyroid cancer cells after epigenetic modifiers; format: cell-based, human
[11] = system: SSTR2; assay: IHC staining of SSTR2 in tumor tissues of treated mice; format: in vivo; settings: FTC133 (p=0.023) and AR42J (p=0.016) models; VAC 300 µg/kg intraperitoneal daily for 10 days

Row | SMILES | effect of decitabine treatment on the uptake of ^86Y-DOTA-EB-TATE ([1]; FTC133 and AR42J subcutaneous mice models, decitabine 1 mg/kg intraperitoneal daily for 10 days, PET scans) | effect on the uptake of ^86Y-DOTA-EB-TATE within the tumor and normal tissues in comparison with control mice [1] | effect of VAC treatment on the uptake of the SST analogs ([1]; subcutaneous and metastatic mice models, VAC 300 µg/kg intraperitoneal daily for 10 days, PET) | increase in H4 acetylation at the SSTR2 promoter ([2]; n=4, p<0.001) | H3 acetylation at the SSTR2 promoter ([2]; n=4, p<0.05) | effect on cell growth [3] | global histone acetylation at the protein level [4] | SSTR2 expression [5] | effect of VAC pretreatment on the efficacy of ^177Lu-DOTA-EB-TATE [6] | increase in H3ac at the SSTR2 promoter ([7]; p<0.001) | increase in H4ac at the SSTR2 promoter ([7]; p<0.01) | effect of VAC pretreatment on the efficacy of ^177Lu-DOTA-EB-TATE [8] | increase in H3ac at the SSTR2 promoter [9] | increase in H4ac at the SSTR2 promoter [9] | SSTR2 expression ([10]; FTC133, BCPAP and TT cells, 2 mM or 4 mM for 72 h) | induction of SSTR2 expression in comparison to TAC and DEC ([10]; thyroid cancer cells, 72h) | SSTR2 expression in tumor tissues compared with placebo (IHC) [11]
1 | Nc1ncn([C@H]2C[C@H](O)[C@@H](CO)O2)c(=O)n1 [decitabine] | did not improve the uptake | Neither VAC nor DEC treatment resulted in any significant difference |  |  |  |  |  |  |  |  |  |  |  |  |  |  | 
2 | CCCC(CCC)C(=O)O [VAC, valproic acid] |  | Neither VAC nor DEC treatment resulted in any significant difference | no significant effect | 2.4 fold | slightly, but significantly reduced | growth inhibition by promoting cell cycle arrest | increase in H3ac and H4ac | significantly upregulated | did not improve the efficacy | 2.8 fold | 2.7 fold | did not improve the efficacy | 1.9 fold | 2.9 fold | significantly upregulated | more potent inducer of SSTR2 expression | higher cytoplasmic SSTR2 expression
